# Values of other authors as cited in US20080045583A1, “STABLE LEVETIRACETAM COMPOSITIONS AND METHODS” (priority 2006, published 2008).
# Settings: oral, with or without food
smiles,measurement,value
"CC[C@@H](C(N)=O)N1CCCC1=O [Levetiracetam, (−)-(S)-α-ethyl-2-oxo-1-pyrrolidine acetamide]","bioavailability, effect of food",not affected by food
